Columns and labels:
[1] = molecular target: recombinant human 11β-HSD type 1 enzyme (Homo sapiens, UniProt P28845); assay: 11β-HSD Type 1 Enzyme Assay (NADPH fluorescence); type: biochemical; conditions: three hour incubation at room temperature, read-out: Human 11-βHSD1 IC50
Protocol: 11β-HSD Type 1 Enzyme Assay
Human 11β-HSD type 1 activity is measured by assaying NADPH production by fluorescence assay. Solid compounds are dissolved in DMSO to a concentration of 10 mM. Twenty microliters of each are then transferred to a column of a 96-well polypropylene Nunc plate where they are further diluted 50-fold followed by subsequent two-fold titration, ten times across the plate with additional DMSO using a Tecan Genesis 200 automated system. Plates are then transferred to a Tecan Freedom 200 system with an attached Tecan Temo 96-well head and an Ultra 384 plate reader. Reagents are supplied in 96-well polypropylene Nunc plates and are dispensed individually into black 96-well Molecular Devices High Efficiency assay plates (40 μL/well capacity) in the following fashion: 9 μL/well of substrate (2.22 mM NADP, 55.5 μM Cortisol, 10 mM Tris, 0.25% Prionex, 0.1% Triton X100), 3 μL/well of water to compound wells or 3 μL to control and standard wells, 6 μL/well recombinant human 11β-HSD type 1 enzyme, 2 μL/well of compound dilutions. For ultimate calculation of percent inhibition, a series of wells are added that represent assay minimum and maximum: one set containing substrate with 667 μM carbenoxolone (background), and another set containing substrate and enzyme without compound (maximum signal). Final DMSO concentration is 0.5% for all compounds, controls and standards. Plates are then placed on a shaker by the robotic arm of the Tecan for 15 seconds before being covered and stacked for a three hour incubation period at room temperature. Upon completion of this incubation, the Tecan robotic arm removes each plate individually from the stacker and places them in position for addition of 5 μL/well of a 250 μM carbenoxolone solution to stop the enzymatic reaction. Plates are then shaken once more for 15 seconds then placed into an Ultra 384 microplate reader (355EX/460EM) for detection of NADPH fluorescence.

11β-HSD1 = molecular target: T1, 11β-HSD1 (Homo sapiens, UniProt P28845); assay: Human Aortic Smooth Muscle Cell Assay (cortisone to cortisol); type: cell-based; conditions: primary human aortic smooth muscle cells (AoSMC), hTNFα-induced 11β-HSD1, cortisol by immunoassay
T1 construct: containing 12 ng/mL hTNFα to induce expression of 11β-HSD1; endogenous in cells; host or cells: primary human aortic smooth muscle cells (AoSMC), induced with hTNFα
T1 sequence (P28845 whole entry): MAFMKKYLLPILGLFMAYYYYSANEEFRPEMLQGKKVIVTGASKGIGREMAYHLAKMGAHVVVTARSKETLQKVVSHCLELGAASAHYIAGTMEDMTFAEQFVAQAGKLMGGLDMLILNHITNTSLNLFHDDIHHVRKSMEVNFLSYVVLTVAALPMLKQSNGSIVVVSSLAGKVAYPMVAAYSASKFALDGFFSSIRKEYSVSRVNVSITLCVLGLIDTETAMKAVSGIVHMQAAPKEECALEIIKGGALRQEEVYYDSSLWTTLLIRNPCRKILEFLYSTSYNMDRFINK
Protocol: Human Aortic Smooth Muscle Cell Assay
Primary human aortic smooth muscle cells (AoSMC) are cultured in 5% FBS growth medium to a passage number of 6, then pelleted by centrifugation and resuspended at a density of 9×10^4 cells/mL in 0.5% FBS assay medium containing 12 ng/mL hTNFα to induce expression of 11β-HSD1. Cells are seeded into 96-well tissue culture assay plates at 100 μL/well (9×10^3 cells/well) and incubated for 48 hours at 37° C., 5% CO2. Following induction, cells are incubated for 4 hours at 37° C., 5% CO2 in assay medium containing test compounds then treated with 10 μL/well of 10 μM cortisone solubilized in assay medium, and incubated for 16 hours at 37° C., 5% CO2. Medium from each well is transferred to a plate for subsequent analysis of cortisol using a competitive fluorescence resonance time resolved immunoassay. In solution, an allophycocyanin (APC)-cortisol conjugate and free cortisol analyte compete for binding to a mouse anti-cortisol antibody/Europium (Eu)-anti mouse IgG complex. Higher levels of free cortisol result in diminishing energy transfer from the Europium-IgG to the APC-cortisol complex resulting in less APC fluorescence. Fluorescent intensities for Europium and APC are measured using a LJL Analyst AD. Europium and APC excitation is measured using 360 nm excitation and 615 nm and 650 nm emission filters respectively. Time resolved parameters for Europuium were 1000 μs integration time with a 200 μs delay. APC parameters are set at 150 μs integration time with a 50 μs delay. Fluorescent intensities measured for APC are modified by dividing by the Eu fluorescence (APC/Eu). This ratio is then used to determine the unknown cortisol concentration by interpolation using a cortisol standard curve fitted with a 4-parameter logistic equation. These concentrations are then used to determine compound activity by plotting concentration versus % inhibition, fitting with a 4-parameter curve and reporting the IC50.

11-βHSD2 enzyme = molecular target: T2, 11-βHSD2 enzyme (Homo sapiens, UniProt P80365); assay: Selectivity assay using the 11-βHSD2 enzyme; type: biochemical; conditions: selectivity 11-βHSD1 over 11-βHSD2
T2 sequence (P80365 1-405): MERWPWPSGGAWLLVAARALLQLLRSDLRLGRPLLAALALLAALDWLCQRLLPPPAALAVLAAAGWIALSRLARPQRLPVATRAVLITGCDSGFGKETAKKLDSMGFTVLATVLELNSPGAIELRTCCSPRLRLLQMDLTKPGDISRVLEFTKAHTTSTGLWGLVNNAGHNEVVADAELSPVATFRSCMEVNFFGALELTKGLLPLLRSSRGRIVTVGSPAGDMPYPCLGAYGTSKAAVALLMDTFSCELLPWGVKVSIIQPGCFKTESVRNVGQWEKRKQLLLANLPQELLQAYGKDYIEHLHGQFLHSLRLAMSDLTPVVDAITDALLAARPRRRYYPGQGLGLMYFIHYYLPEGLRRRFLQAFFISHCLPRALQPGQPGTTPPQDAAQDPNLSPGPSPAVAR
Excerpt: Compounds of the invention can also tested for selectivity against 11-βHSD2 in an assay similar to that described for 11-βHSD1, but using the 11-βHSD2 enzyme. The assay using the 11-βHSD2 enzyme can be carried out by the methods described herein and supplemented by methods known in the art.

cortisone conversion = assay: Acute In Vivo Cortisone Conversion Assay; set-up: species or system mice (male C57BL/6); conditions: Mus musculus; mice, oral dose of 10 mg/kg, cortisone challenge after 16 hours, serum cortisol
Protocol: Acute In Vivo Cortisone Conversion Assay
In general, compounds are dosed orally into mice, the mice are challenged with a subcutaneous injection of cortisone at a set timepoint after compound injection, and the blood of each animal is collected some time later. Separated serum is then isolated and analyzed for levels of cortisone and cortisol by LC-MS/MS, followed by calculation of mean cortisol and percent inhibition of each dosing group. Specifically, male C57BL/6 mice are obtained from Harlan Sprague Dawley at average weight of 25 grams. Exact weights are taken upon arrival and the mice randomized into groups of similar weights. Compounds are prepared in 1% w-w HEC, 0.25% w-w polysorbate 80, 0.05% w-w Dow Corning antifoam #1510-US at various doses based on assumed average weight of 25 grams. Compounds are dosed orally, 200 μl per animal, followed by a subcutaneous dose, 200 μl per animal, of 30 mg/kg cortisone at 1 to 24 hours post compound dose. At 10 minutes post cortisone challenge, each animal is euthanized for 1 minute in a CO2 chamber, followed by blood collection via cardiac puncture into serum separator tubes. Once fully clotted, tubes are spun at 2500×g, 4° C. for 15 minutes, the serum transferred to wells of 96-well plates (Corning Inc, Costar #4410, cluster tubes, 1.2 ml, polypropylene), and the plates are frozen at −20° C. until analysis by LC-MS/MS. For analysis, serum samples are thawed and the proteins are precipitated by the addition of acetonitrile containing d4-cortisol internal standard. Samples are vortex mixed and centrifuged. The supernatant is removed and dried under a stream of warm nitrogen. Extracts are reconstituted in methanol/water (1:1) and injected onto the LC-MS/MS system. The levels of cortisone and cortisol are assayed by selective reaction monitoring mode following positive ACPI ionization on a triple quadrupole mass spectrophotometer.

recombinant human 11β-HSD type 1 enzyme, sequence (P28845 whole entry): as the sequence (P28845 whole entry) above

Row | SMILES | IC50 [1] [nM] | IC50 (11β-HSD1) [nM] | inhibition at 10 mg/kg (cortisone conversion) [%] | other results
1 | COc1cc(Cl)c(CC2CCN(C3CCc4n[nH]cc4C3)C2=O)c(Cl)c1 (racemic) [Example 1, 3-(2,6-Dichloro-4-methoxy-benzyl)-1-(4,5,6,7-tetrahydro-2H-indazol-5-yl)-pyrrolidin-2-one] | 100 | – | – | –
2 | COc1cc(Cl)c(CC2CCN(C3CCc4n[nH]cc4C3)C2=O)c(Cl)c1 (single isomer, unassigned) [Example 7, 3-(2,6-Dichloro-4-methoxy-benzyl)-1-(4,5,6,7-tetrahydro-2H-indazol-5-yl)-pyrrolidin-2-one] | 37 | – | – | –
3 | Cn1cc(-c2ccc(CC3CCN(C4CCc5n[nH]cc5C4)C3=O)c(Cl)c2)cn1 (centres unmarked) [Example 11, 3-[2-Chloro-4-(1-methyl-1H-pyrazol-4-yl)-benzyl]-1-(4,5,6,7-tetrahydro-2H-indazol-5-yl)-pyrrolidin-2-one] | – | 24 | – | –
4 | O=C(c1ccc(-c2cc(Cl)c(C[C@@H]3CCN(C4CCc5n[nH]cc5C4)C3=O)c(Cl)c2)cc1)N1CCOCC1 (some centres unmarked) [Example 41] | – | – | 84 | –
5 | O=C1[C@H](Cc2c(Cl)cc(-c3ccc(F)nc3)cc2Cl)CCN1C1CCc2n[nH]cc2C1 (some centres unmarked) [Example 44] | – | – | 92 | –

Now from value to compound, other results behind:

Row | IC50 [1] [nM] | IC50 (11β-HSD1) [nM] | SMILES | inhibition at 10 mg/kg (cortisone conversion) [%] | other results
6 | – | 2 | O=C1C(Cc2c(Cl)cc(-c3ccccc3)cc2Cl)CCN1C1CCc2n[nH]cc2C1 (centres unmarked) [Example 20] | – | –
7 | 243 | – | O=C1[C@H](Cc2c(Cl)cc(OCc3ccccc3)cc2Cl)CCN1[C@H]1CCc2n[nH]cc2C1 [Example 35, (3R,5S)-3-(4-Benzyloxy-2,6-dichloro-benzyl)-1-(4,5,6,7-tetrahydro-2H-indazol-5-yl)-pyrrolidin-2-one] | – | –
8 | 276 | 0.4 | O=C1[C@H](Cc2c(Cl)cc(-c3ccc(F)cc3)cc2Cl)CCN1[C@H]1CCc2n[nH]cc2C1 [Example 36, (3R-5S)-(−)-3-(3,5-Dichloro-4′-fluoro-biphenyl-4-ylmethyl)-1-(4,5,6,7-tetrahydro-2H-indazol-5-yl)-pyrrolidin-2-one] | 95 | fold greater inhibition of 11-βHSD1 enzyme as compared to the inhibition of 11-βHSD2 (11-βHSD2 enzyme): 535 fold
